For the data set the following is noted: for solubility: 25 °C.

Molecules are shown by their SMILES. In brackets after ≈: the same amount, converted by molar mass.

Our source for the logP and solubility values is the OPERA property sets (Mansouri et al. 2018).

The compound `O=Cc1cc(O)ccc1O` had a logP of 0.54 and a solubility of 99.9 mM (≈ 13800 µg/mL).

Regarding `COc1ccc(OC)c(C=O)c1`, the logP came to 1.91 and the solubility came to 4.78 mM (≈ 795 µg/mL).

On to `CC(C)OC(=O)COc1ccc(C=O)cc1`, for which the logP came to 1.88.

Take `O=Cc1cc(O)cc(Br)c1`: the logP was 2.5 and the solubility came out at 0.562 mM (≈ 113 µg/mL).

For the compound `CCOc1ccc(C=O)cc1OC`, the logP was 1.63.

For `O=Cc1cccc(O)c1`, the logP stood at 1.29.

With `COc1cc(C=O)cc(OC)c1OC`, the logP came to 1.39.

Regarding `O=Cc1ccc(O)cc1`, the solubility was found to be 106 mM (≈ 12900 µg/mL).

`O=Cc1ccc(O)c(Br)c1` gave a logP of 1.83 and a solubility of 6.62 mM (≈ 1330 µg/mL).

The compound `COc1ccc(C=O)cc1OC` yielded a solubility of 38 mM (≈ 6320 µg/mL).

`O=Cc1ccc(O)c(O)c1`: the logP was 1.09.

As for `O=Cc1cc(Br)ccc1Br`, the logP turned out to be 3.35 and the solubility came out at 0.158 mM (≈ 41.8 µg/mL).
